Measured values as given in ChEMBL document CHEMBL1909046, “DrugMatrix in vitro pharmacology data”.

Legend:
[1] = target: Substance-P receptor (Homo sapiens, UniProt P25103); assay type: cell membranes, CHO, Membrane; details: cho; also: in other assays of this panel Not Active means under 50% inhibition at 10 µM
[2] = target: T1, Nitric oxide synthase, inducible (Mus musculus, UniProt P29477); parameters: species or system Escherichia coli;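 also: inhibition of iNOS enzyme activity measured with L-arginine as substrate; in other assays of this panel Not Active means under 50% inhibition at 10 µM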
T1 sequence (P29477 whole entry): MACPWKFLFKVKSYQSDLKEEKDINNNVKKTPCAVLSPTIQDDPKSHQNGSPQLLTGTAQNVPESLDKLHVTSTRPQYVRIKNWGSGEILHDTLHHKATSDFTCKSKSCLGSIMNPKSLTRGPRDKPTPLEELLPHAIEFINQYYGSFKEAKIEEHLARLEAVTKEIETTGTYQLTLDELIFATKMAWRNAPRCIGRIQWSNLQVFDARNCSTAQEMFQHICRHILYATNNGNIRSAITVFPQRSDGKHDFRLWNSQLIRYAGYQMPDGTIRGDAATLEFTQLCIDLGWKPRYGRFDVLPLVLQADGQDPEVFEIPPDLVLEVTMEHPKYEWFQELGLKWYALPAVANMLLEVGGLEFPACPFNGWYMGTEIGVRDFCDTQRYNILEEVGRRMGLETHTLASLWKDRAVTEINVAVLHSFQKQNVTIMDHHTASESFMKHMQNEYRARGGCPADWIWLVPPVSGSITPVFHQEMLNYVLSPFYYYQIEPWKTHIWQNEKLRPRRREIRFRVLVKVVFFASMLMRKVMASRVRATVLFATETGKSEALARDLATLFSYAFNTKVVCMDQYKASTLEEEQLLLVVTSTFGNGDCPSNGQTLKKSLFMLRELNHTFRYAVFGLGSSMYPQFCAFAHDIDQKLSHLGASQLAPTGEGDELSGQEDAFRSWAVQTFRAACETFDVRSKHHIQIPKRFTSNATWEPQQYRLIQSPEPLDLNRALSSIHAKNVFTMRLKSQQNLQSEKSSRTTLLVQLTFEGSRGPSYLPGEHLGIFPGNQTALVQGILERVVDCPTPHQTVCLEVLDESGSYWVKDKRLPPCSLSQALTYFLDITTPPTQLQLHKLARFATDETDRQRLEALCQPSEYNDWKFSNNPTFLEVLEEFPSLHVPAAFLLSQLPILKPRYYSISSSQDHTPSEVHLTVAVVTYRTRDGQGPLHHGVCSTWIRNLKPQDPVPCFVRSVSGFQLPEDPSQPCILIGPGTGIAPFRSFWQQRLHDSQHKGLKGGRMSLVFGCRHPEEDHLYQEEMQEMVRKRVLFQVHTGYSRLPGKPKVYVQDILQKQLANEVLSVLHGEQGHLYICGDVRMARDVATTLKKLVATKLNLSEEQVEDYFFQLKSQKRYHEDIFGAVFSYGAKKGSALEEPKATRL

[3] = DRUGMATRIX: Calcium Channel Type L, Benzothiazepine radioligand binding (ligand: [3H] Diltiazem); assay type: cell membranes, Rattus norvegicus, Wistar, Brain, Membrane; details: Not Active = under 50% inhibition at 10 µM
[4] = target: Cytochrome P450 2C19 (Homo sapiens, UniProt P33261); details: bti-tn-5b1-4; also: in other assays of this panel Not Active means under 50% inhibition at 10 µM
[5] = DRUGMATRIX: beta-Lactamase enzyme inhibition (substrate: Nitrocefin); parameters: species or system Bacillus cereus; details: Not Active = under 50% inhibition at 10 µM
[6] = target: Beta-3 adrenergic receptor (Homo sapiens, UniProt P13945); assay: DRUGMATRIX: Adrenergic beta3 radioligand binding (ligand: [125I] Cyanopindolol); assay type: cell membranes, HEK293, Membrane; details: hek293; Not Active = under 50% inhibition at 10 µM
[7] = target: Sodium-dependent noradrenaline transporter (Homo sapiens, UniProt P23975); assay: DRUGMATRIX: Norepinephrine Transporter radioligand binding (ligand: [125I] RTI-55); assay type: cell membranes, MDCK, Membrane; details: mdck; Not Active = under 50% inhibition at 10 µM
Chain of Sodium-dependent noradrenaline transporter (P23975 whole entry): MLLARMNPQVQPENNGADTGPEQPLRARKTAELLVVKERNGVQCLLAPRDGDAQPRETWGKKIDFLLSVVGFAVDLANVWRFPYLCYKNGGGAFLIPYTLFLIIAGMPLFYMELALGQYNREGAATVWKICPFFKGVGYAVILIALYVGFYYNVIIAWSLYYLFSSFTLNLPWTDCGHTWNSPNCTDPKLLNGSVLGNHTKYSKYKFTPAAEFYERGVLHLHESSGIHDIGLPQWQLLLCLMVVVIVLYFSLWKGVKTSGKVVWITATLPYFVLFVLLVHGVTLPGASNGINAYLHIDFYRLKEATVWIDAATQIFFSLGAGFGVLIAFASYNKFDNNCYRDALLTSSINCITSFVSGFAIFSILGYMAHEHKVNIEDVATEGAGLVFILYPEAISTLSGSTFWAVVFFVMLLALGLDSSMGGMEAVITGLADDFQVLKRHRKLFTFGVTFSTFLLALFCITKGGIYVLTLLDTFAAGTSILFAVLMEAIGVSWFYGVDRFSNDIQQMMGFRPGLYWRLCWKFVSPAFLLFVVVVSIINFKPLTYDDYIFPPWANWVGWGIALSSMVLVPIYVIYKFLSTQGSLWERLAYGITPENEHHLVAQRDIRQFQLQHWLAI

Chain of Beta-3 adrenergic receptor (P13945 whole entry): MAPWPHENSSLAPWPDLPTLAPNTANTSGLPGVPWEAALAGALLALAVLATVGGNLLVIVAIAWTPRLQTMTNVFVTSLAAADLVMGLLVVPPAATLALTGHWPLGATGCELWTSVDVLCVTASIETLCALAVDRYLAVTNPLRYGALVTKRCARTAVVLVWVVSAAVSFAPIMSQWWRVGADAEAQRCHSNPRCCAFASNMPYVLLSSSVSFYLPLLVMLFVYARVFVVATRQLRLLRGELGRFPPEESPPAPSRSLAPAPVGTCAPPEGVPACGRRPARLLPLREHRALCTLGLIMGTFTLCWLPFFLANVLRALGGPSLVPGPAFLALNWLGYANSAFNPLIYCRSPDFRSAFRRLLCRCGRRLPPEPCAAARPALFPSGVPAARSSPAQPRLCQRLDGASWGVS
Chain of Substance-P receptor (P25103 whole entry): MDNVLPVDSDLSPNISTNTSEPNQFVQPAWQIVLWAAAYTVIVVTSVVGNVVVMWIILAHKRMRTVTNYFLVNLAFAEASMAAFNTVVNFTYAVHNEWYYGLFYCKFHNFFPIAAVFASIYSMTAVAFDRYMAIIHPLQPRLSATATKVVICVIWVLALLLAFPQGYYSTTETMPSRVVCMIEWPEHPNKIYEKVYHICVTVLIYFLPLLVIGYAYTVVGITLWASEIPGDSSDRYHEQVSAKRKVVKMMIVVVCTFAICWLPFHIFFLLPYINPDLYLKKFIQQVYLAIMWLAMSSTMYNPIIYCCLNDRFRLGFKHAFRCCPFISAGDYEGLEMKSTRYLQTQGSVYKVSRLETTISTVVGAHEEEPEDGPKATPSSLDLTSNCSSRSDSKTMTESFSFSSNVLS
Chain of Cytochrome P450 2C19 (P33261 whole entry): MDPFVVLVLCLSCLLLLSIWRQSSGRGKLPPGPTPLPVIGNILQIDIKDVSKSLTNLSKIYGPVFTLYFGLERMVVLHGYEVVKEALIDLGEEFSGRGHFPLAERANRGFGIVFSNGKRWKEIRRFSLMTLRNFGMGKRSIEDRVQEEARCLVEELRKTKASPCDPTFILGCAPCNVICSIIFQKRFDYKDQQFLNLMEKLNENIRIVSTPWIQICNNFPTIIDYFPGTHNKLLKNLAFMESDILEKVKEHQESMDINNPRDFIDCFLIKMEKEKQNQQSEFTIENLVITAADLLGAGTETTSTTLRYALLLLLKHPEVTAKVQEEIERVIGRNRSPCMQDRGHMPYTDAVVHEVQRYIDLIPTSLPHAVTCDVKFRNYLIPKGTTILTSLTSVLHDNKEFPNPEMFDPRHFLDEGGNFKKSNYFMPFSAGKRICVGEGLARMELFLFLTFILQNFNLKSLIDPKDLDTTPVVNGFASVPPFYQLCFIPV

CCC1(C)CC(=O)NC1=O (stereo not given) [ETHOSUXIMIDE]
Not Active: IC50 [1] | IC50 [2] | IC50 [3] | Ki [3] | IC50 [4] | Ki [4] | IC50 [5] | Ki [5] | IC50 [6] | IC50 [7]

C#C[C@]1(OC(C)=O)CC[C@H]2[C@@H]3CCC4=C[C@@H](OC(C)=O)CC[C@@H]4[C@H]3CC[C@@]21C [ETHYNODIOL DIACETATE]
Not Active: IC50 [1] | IC50 [2] | IC50 [3] | Ki [3] | IC50 [4] | Ki [4] | IC50 [5] | Ki [5] | IC50 [6] | IC50 [7]

C=CCc1ccc(O)c(OC)c1 [EUGENOL]
Not Active: IC50 [1] | IC50 [2] | IC50 [3] | Ki [3] | IC50 [4] | Ki [4] | IC50 [5] | Ki [5] | IC50 [6] | IC50 [7]

CC(C(=O)O)c1cccc(Oc2ccccc2)c1 (stereo not given) [FENOPROFEN]
Not Active: IC50 [1] | IC50 [2] | IC50 [3] | Ki [3] | IC50 [4] | Ki [4] | IC50 [5] | Ki [5] | IC50 [6] | IC50 [7]

Nc1ccn([C@@H]2O[C@H](CO)[C@@H](O)C2(F)F)c(=O)n1 [GEMCITABINE]
Not Active: IC50 [1] | IC50 [2] | IC50 [3] | Ki [3] | IC50 [4] | Ki [4] | IC50 [5] | Ki [5] | IC50 [6] | IC50 [7]

N=C(N)NC(=O)Cc1c(Cl)cccc1Cl [GUANFACINE]
Not Active: IC50 [1] | IC50 [2] | IC50 [3] | Ki [3] | IC50 [4] | Ki [4] | IC50 [5] | Ki [5] | IC50 [6] | IC50 [7]

NNc1nncc2ccccc12 [HYDRALAZINE]
Not Active: IC50 [1] | IC50 [2] | IC50 [3] | Ki [3] | IC50 [4] | Ki [4] | IC50 [5] | Ki [5] | IC50 [6] | IC50 [7]

CC(C)NNC(=O)c1ccncc1 [IPRONIAZID]
Not Active: IC50 [1] | IC50 [2] | IC50 [3] | Ki [3] | IC50 [4] | Ki [4] | IC50 [5] | Ki [5] | IC50 [6] | IC50 [7]

O=c1cc(N2CCOCC2)oc2c(-c3ccccc3)cccc12 [LY-294002]
Not Active: IC50 [1] | IC50 [2] | IC50 [3] | Ki [3] | IC50 [4] | Ki [4] | IC50 [5] | Ki [5] | IC50 [6] | IC50 [7]

NC(=O)C[S+]([O-])C(c1ccccc1)c1ccccc1 (stereo not given) [MODAFINIL]
Not Active: IC50 [1] | IC50 [2] | IC50 [3] | Ki [3] | IC50 [4] | Ki [4] | IC50 [5] | Ki [5] | IC50 [6] | IC50 [7]

CCN(CC)CCOCCC1=CCC2CC1C2(C)C (stereo not given) [MYRTECAINE]
Not Active: IC50 [1] | IC50 [2] | IC50 [3] | Ki [3] | IC50 [4] | Ki [4] | IC50 [5] | Ki [5] | IC50 [6] | IC50 [7]

O=C(O)c1cccnc1Nc1cccc(C(F)(F)F)c1 [NIFLUMIC ACID]
Not Active: IC50 [1] | IC50 [2] | IC50 [3] | Ki [3] | IC50 [4] | Ki [4] | IC50 [5] | Ki [5] | IC50 [6] | IC50 [7]

COC(=O)Nc1nc2ccc(C(=O)c3cccs3)cc2[nH]1 [NOCODAZOLE]
Not Active: IC50 [1] | IC50 [2] | IC50 [3] | Ki [3] | IC50 [4] | Ki [4] | IC50 [5] | Ki [5] | IC50 [6] | IC50 [7]

C#CC1(O)CC[C@H]2[C@@H]3CCC4=CC(=O)CC[C@@H]4[C@H]3CC[C@@]21CC (stereo not given in full) [NORGESTREL]
Not Active: IC50 [1] | IC50 [2] | IC50 [3] | Ki [3] | IC50 [4] | Ki [4] | IC50 [5] | Ki [5] | IC50 [6] | IC50 [7]

COC(=O)Nc1nc2ccc([S+]([O-])c3ccccc3)cc2[nH]1 (stereo not given) [OXFENDAZOLE]
Not Active: IC50 [1] | IC50 [2] | IC50 [3] | Ki [3] | IC50 [4] | Ki [4] | IC50 [5] | Ki [5] | IC50 [6] | IC50 [7]

C[n+]1ccc(-c2cc[n+](C)cc2)cc1.[Cl-].[Cl-] [PARAQUAT DICHLORIDE]
Not Active: IC50 [1] | IC50 [2] | IC50 [3] | Ki [3] | IC50 [4] | Ki [4] | IC50 [5] | Ki [5] | IC50 [6] | IC50 [7]

CCn1cc(C(=O)O)c(=O)c2cnc(N3CCCC3)nc21 [PIROMIDIC ACID]
Not Active: IC50 [1] | IC50 [2] | IC50 [3] | Ki [3] | IC50 [4] | Ki [4] | IC50 [5] | Ki [5] | IC50 [6] | IC50 [7]
